“And” between values parts separate entries of the source, which are not always exact repeats. Equal entries are not always repeated. Where two headings read alike, the source gives them in different places.
Assays:
[1] = system: W9 probe (isolated 9 bp AT-tract); assay: DNase I footprinting on W9 probe; type: binding
Excerpt: To target AT-tracts, the principal component of satellite I, III and SARs), a pyrrole pentamer was synthesized by facile solid phase chemistry in which five pyrrole (Py) aromatic amino acid rings are linked covalently by amide bonds (Baird and Dervan, 1996). The resulting compound, termed P7 had the sequence Py-Py-Py-Py-Py-β-Dp (where β=β-alanine and Dp=dimethylaminopropylamide). This compound is expected to bind 7 successive A or T base pairs (Ws) according to the n+1 rule where n is the number of amides (Youngquist and Dervan, 1985). The DNA binding properties of P7 were assessed by DNAse I footprinting experiments using a synthetic probe containing isolated, repeated AT-tracts of 9 Ws (W9, FIG. 2A). By visual inspection, the apparent dissociation constant (Kapp) for P7 was estimated to be approximately 80 nM (Table 3).
were hybridized to obtain the W9 probe, oligomerized by ligation and digested with BamHl and BglII to obtain different tandem repeats. The following oligonucleotides were prepared identically:
(§1) Fragments were purified on low-melt agarose gels and then cloned into a modified pSP64 vector, cut by BamHI and BglII. End-labeling was carried out following digestion with HindIII and a fill-in reaction with Klenow DNA polymerase. The labeled plasmid was cut with PvuII and the target fragments purified from low-melting agarose gels. The 657 bp EcoRl/Hinf1 fragment of the Drosophila histone SAR was cloned into the SmaI site of the modified pSP64 plasmid. This SAR probe was end-labeled following digestion with EcoRl, then cut with ClaI and the resulting 347 bp fragment purified from low-melting agarose gels.
(§2) All reactions were performed in a total volume of 40 μl. A polyamide stock solution or buffer (for reference lanes) was added to an assay buffer containing 20 kcpm radiolabeled DNA, affording final concentrations of 10 mM Tris-HCl (pH 7.4), 10 mM KCl, 10 mM MgCl, 5 mM CaCl2, 0.5 mM EDTA, 0.5 mM EGTA, 1 mM DTT and 0.1% digitonine. The solutions were allowed to equilibrate for at least 2 h at room temperature. Footprinting reactions were initiated by the addition of 2 μl of a DNase stock solution (containing −100 pg DNase I in buffer) and allowed to proceed for 2 min at room temperature. The reactions were stopped by addition of 10 μl of a solution containing 1.25 M NaCl, 100 mM EDTA. Next, 5 μl of a 1% SDS solution was added, followed by 2 μl of a solution containing 1 μg poly(dA-dT), 1 μg salmon sperm DNA and 10 μg glycogen and the DNA was ethanol precipitated (20 min at −20° C.). The reactions were resuspended in 4 μl of 80% formamide loading buffer, denatured 10 min at 85° C., cooled on ice and electrophoresed on 8% polyacrylamide denaturing gels (5% cross-link, 8 M urea) at 30 W for 1 h. The gels were dried and exposed o/n at −70° C.

[2] = system: sperm nuclei (condensation to chromatids); assay: Chromosome condensation of sperm nuclei in mitotic Xenopus egg extracts; type: biochemical
Excerpt: Mitotic Xenopus egg extracts convert added nuclei and sperm to chromatids in vitro. This chromosome condensation process requires topoisomerase II (Adachi et al., 1991), the protein complex condensin (Hirano T, 1997) and presumably other unidentified activities present in the mitotic extract. First, chromatin is remodeled and nuclei then proceed quite synchronously through a number of morphologically distinguishable steps (Hirano and Mitchison, 1991). Remodeling is morphological manifested by swelling of the nuclei which involves exchange of basic sperm-specific proteins for H2A/H2B and the incorporation of histone B4 (Dimitrov S, 1994).
Pyrrole drugs were added to the extract together with the sperm or after the remodeling step (at 10 minutes) and the extent of condensation was determined after 120 min. At this time point, the conversion of all sperm nuclei to clusters of individual chromatids is complete in the absence of drug (FIG. 8A, control). […] Addition of this compound at 125 to 250 nM (indicated) arrested this process at the so-called early ‘ruffle’ stage (FIG. 8A). These structures retain the swollen sperm shape, but they have peripheral blebs (ruffles) and a slightly heterogeneous interior. At this drug concentration, no chromatids are seen. If the concentration of Lex10 is raised to 500 nM, we observed an even earlier arrest as evidenced by the accumulation of swollen, remodeled sperm-shaped nuclei containing a homogeneous interior and smooth periphery. […] The monomer P7 was also tested but we observed no inhibition with the pyrrole pentamer up to the highest concentration (8 μM) tested. Condensation was inhibited at a ruffle stage with a P9 concentration of 2 μM (not shown).
In the experiment shown in FIG. 8B, Lex10 was added to the extract at a final concentration of 1 μM (several fold above the minimum inhibitory concentration) after which competitor oligonucleotides were added at different stages. Three different oligonucleotides of similar size were used: the SAR oligo contains two large clustered AT-tracts of the SAR probe (W17N5W15), the W9 oligo has a single AT tract of 9 base pairs and the GAGAA oligo harbors 5 tandem GAGAA repeats.
Topoisomerase II inhibition and chromosome assembly were as described previously (Girard et al., 1998, Strick and Laemmli, 1995). Affinity cleavage experiments was performed as described elsewhere (Turner et al., 1997).

[3] = system: Drosophila histone SAR probe (clustered/long AT-tracts); assay: DNase I footprinting on SAR probe; type: binding
Procedure: Since satellite I is composed of exclusively A and T bases, it constitutes an ‘ideal’ binding substrate for oligopyrroles. But to obtain SAR-specific compounds, molecules are required that preferably bind its clustered, irregularly spaced AT-tracts. Binding studies were carried out with P9, P7 and P13 on the Drosophila histone SAR probe which contains the following clustered/long AT-tracts (W15N3W17N5W16N13W8NW6 where N is any base, see also FIG. 3D). […] The ratio of these two affinities is used (KappW9/KappSAR) as an empirical measure of SAR specificity. For all compounds tested thus far, this value (referred to as SAR preference factor) was around unity (Table 3).
as §1, §2

[4] = system: satellite III chromatin; assay: Restriction enzyme (HaeIII) cleavage within satellite III chromatin; type: biochemical, Drosophila; conditions: data not shown
Excerpt: Satellite III repeats contain near the topoisomerase II cleavage site a HaeIII restriction sequence. […] We made a similar observation using P9 (data not shown).

[5] = system: Drosophila satellite III chromatin (topoisomerase II cleavage); assay: Topoisomerase II cleavage in satellite III of Kc nuclei in Xenopus egg extracts with VM26; type: biochemical; conditions: for concentration giving massive cleavage stimulation: P31 at 500 nM comparable to P9 at 62 nM (lowest tested)
[6] = system: GAGA factor (GAF) function; assay: Feeding to developing Drosophila melanogaster of brown-dominant genotype; type: in vivo; conditions: fed to developing flies
[7] = system: GAGA factor (GAF) binding site from the Ubx promoter (GAF31 probe); assay: DNase I footprinting on Ubx GAF binding site
Excerpt: Panel A: DNAse I footprinting experiment with P31 and affinity cleavage with P31E are shown on GAF31 and the Brown I probes. The GAF31 and Brown I probes contains a (AAGAG)2 motif and GAGA factor (GAF) binding site from the Ubx promoter (Biggin et al., 1988). […] The Brown I oligo (a tandem repeat) includes an (AAGAG)5 binding site and a degenerate P31 binding site (AACAC)2 as indicated. P31 concentrations used (nM) are indicated. […] Binding orientations of P31E on these probes are indicated by arrowheads on the brackets pointing towards the N-terminus of the molecule. The letter G refers the G nucleotide cleavage reaction. Panel B: DNAse I footprinting experiment with purified GAGA factor (GAF) on the GAF31 probe. Note that GAF binds both the (AAGAG)2 motif and the binding site from the Ubx promoter.
A footprint experiment was therefore carried out with this protein. The DNA probe (GAF31) used for this purpose contains besides the (AAGAG)2 motif (the target of P31) a typical promoter proximal GAF binding site derived from the Ubx gene (Biggin et al., 1988). This Ubx site contains the pentameric consensus sequence […] of GAF (Omichinski et al., 1997).
(§3) All reactions were performed in a total volume of 40 μl. […]

[8] = system: CACAA repeats (Brown I probe); assay: DNase I footprinting on CACAA repeats; type: binding
Excerpt: A drawback of this binding model, as opposed to conventional 2:1 drug to DNA complexes, is that P31 is expected to bind degenerate GC and CG base pairs, albeit with different affinity. The consensus sequence can thus be defined as […], where S stands for a G or C and W for A or T. To evaluate binding of P31 to CACAA repeats, we used a second probe that contains two of these repeats as well as five tandem GAGAA repeats. […] Again, it is observed than this molecule binds as a 1:1 drug to DNA complex in an orientation as indicated by arrowheads (FIG. 5A). We propose that special structural features of AT-tracts and GAGAA repeats might favor 1:1 DNA to drug complexes (see Discussion).
All reactions were performed in a total volume of 40 μl. A polyamide stock solution or buffer (for reference lanes) was added to an assay buffer containing 20 kcpm radiolabeled DNA, affording final concentrations of 10 mM Tris-HCl (pH 7.4), 10 mM KCl, 10 mM MgCl, 5 mM CaCl2, 0.5 mM EDTA, 0.5 mM EGTA, 1 mM DTT and 0.1% digitonine. The solutions were allowed to equilibrate for at least 2 h at room temperature. Footprinting reactions were initiated by the addition of 2 μl of a DNase stock solution (containing −100 pg DNase I in buffer) and allowed to proceed for 2 min at room temperature. The reactions were stopped by addition of 10 μl of a solution containing 1.25 M NaCl, 100 mM EDTA. […]

[9] = biological target: two GAGAA repeats (GAF31 probe); assay: DNase I footprinting on GAGAA repeats; conditions: read-out: apparent binding constant
Excerpt: In the framework of a search for molecular tools to study PEV, polyamide that targets the abundant satellite V composed of GAGAA repeats (Lohe et al., 1993) was synthesised. Designing molecules that would bind to this repeat motif represented a challenge since with current knowledge, targeting of sequences containing 5′-GNG-3′ or 5′-GA-3′ with drugs composed of pyrrole and imidazole is difficult. However, successful targeting to sequences containing 5′-GTG-3′ was previously achieved using an Im-β-Im motif where β-alanine replaces the function of pyrrole (Turner et al., 1998). Since β-alanine, like pyrroles, is degenerate for A.T and T.A base pairs, we designed a compound based on these observations, to recognize a sequence composed of two tandem GAGAA repeats by systematic placement of β-alanine at the N-terminal neighbor of imidazole. The binding affinity and specificity of this compound, termed P31 (=Im-β-Im-Py-β-Im-β-Im-β-Dp), were evaluated by DNAse I footprinting. For this purpose, two different probes were examined, both containing GAGAA repeats. […] The apparent binding constant of P31 for this sequence was estimated at 0.25 nM. At higher concentrations, protection of two mismatch binding sites was observed. One of these sites contains an AAGTG motif (FIG. 5A).
GAF31 is composed of the oligonucleotides:
as §3

| Structure (SMILES) | better affinity for W9 than P7 [1] [fold] | Kd ([1]; apparent dissociation constant, W9 probe, read-out: Kdapp W9) | concentration inhibiting chromosome condensation (block at ruffle stage) ([2]; 120 min) [µM] | reversal of condensation inhibition by competitor oligonucleotide ([2]; P9 2 μM, 500 ng of SAR-, W9- or GAGAA-oligo) | Ratio (KappW9/KappSAR, SAR preference factor) [3] | Kd ([3]; apparent dissociation constant, SAR probe, read-out: Kdapp SAR) [nM] | SAR specificity factor after tagging with fluorescent label ([3]; value of the tagged derivative) | restriction enzyme cleavage within satellite III [4] | concentration of maximal stimulation of topoisomerase II cleavage [5] | lower concentration for opening satellite III than P31 [5] | stimulation of topoisomerase II cleavage in satellite III [5] | concentration giving massive cleavage stimulation [5] [nM] | effect on GAGA factor function in flies [6] | binding to Ubx GAF binding site [7] | affinity for CACAA repeats relative to GAGAA repeats [8] | Kd [9] [nM] | stimulation of topoisomerase II cleavage in satellite III ([5]; up to a concentration of 200 nM) |
| --- | --- | --- | --- | --- | --- | --- | --- | --- | --- | --- | --- | --- | --- | --- | --- | --- | --- |
| CN(C)CCCNC(=O)CCNC(=O)c1cc(NC(=O)c2cc(NC(=O)c3cc(NC(=O)CCNC(=O)c4cc(NC(=O)c5cc(NC(=O)c6cccn6C)cn5C)cn4C)cn3C)cn2C)cn1C [Compound P9, PyPyPy-β-PyPyPy-β-Dp] | 100 | ~0.75 nM and 0.75 nM | 2 | did not rescue chromatid assembly | 1.4 | 0.55 | 3 | facilitated cleavage | 500 nM and 500 to 1000 nM | roughly 10 fold | massively stimulated | 62 | – | – | – | – | – |
| CN(C)CCCNC(=O)CCNC(=O)c1nc(NC(=O)CCNC(=O)c2nc(NC(=O)CCNC(=O)c3cc(NC(=O)c4nc(NC(=O)CCNC(=O)c5nccn5C)cn4C)cn3C)cn2C)cn1C [Compound P31, Im-β-Im-Py-β-Im-β-Im-β-Dp] | – | – | – | – | – | – | – | – | – | – | – | 500 | interferes with the function of the GAGA factor (GAF) | does not bind | approximately five fold lower affinity | 0.25 | no significant reinforcement of the pattern |

— patent publication US20020169296A1, “Linked, sequence-specific DNA-binding molecules” (priority 2000, published 2002)
